Molecules are shown by their SMILES.

The values that follow come from patent US8865426B2, “Screening method using gelatinase-mediated EphA4 cleavage reaction as an indicator” (Eisai R&D Management Co., Ltd., priority 2010, dated 2014).

Experiment [1] has as its system gelatinase (MMP-2, MMP-9)-mediated EphA4 ectodomain cleavage reaction. Briefly: Western blot assay of NMDA-induced EphA4 cleavage (EphA4 endodomain fragment) in hippocampal primary cultured neurons. The format is cell-based, rat. As for the experimental part: (§1) With the aim of identifying proteases which cleave off the EphA4 ectodomain in a neuronal activity-dependent manner, analysis was first performed using a specific inhibitor of gelatinase family molecules (MMP-2, MMP-9) having important functions in the brain. Neurostimulation was performed with 50 μM NMDA, and the inhibitor used was mmp-2/9 Inhibitor II ((2R)-[(4-biphenylylsulfonyl)amino]-N-hydroxy-3-phenylpropionamide, Merck). For detection of cleavage reaction, two types of antibody-based assays were used, i.e., Western blot assay using an antibody capable of recognizing the EphA4 endodomain and ELISA assay using an antibody capable of recognizing the EphA4 ectodomain.
(§2) Hippocampi were isolated from SD rats at 18 days of embryonic age (Charles River Laboratories, Inc.) and provided for culture. More specifically, fetuses were aseptically taken from pregnant rats. From these fetuses, brains were excised and soaked in 20% FBS (Hyclone)/HBSS (SIGMA). From the excised brains, hippocampi were collected under a stereoscopic microscope. […] On the other hand, the neuronal cells were collected with PBS and then quantified for their protein levels, and 10 μg aliquots were subjected to SDS-PAGE, followed by Western blotting with an anti-EphA4 antibody capable of recognizing the endodomain.

Experiment [2] has the same test system. As to the kind of experiment: ELISA assay of NMDA-induced EphA4 cleavage (EphA4 ectodomain in cultured solution) in hippocampal primary cultured neurons. In kind it is cell-based, rat. As for the experimental part: as §1, §2

`CN[C@H](CC(=O)O)C(=O)O` [NMDA]: the “induction of EphA4 cleavage reaction (EphA4 endodomain fragment detected)” value in experiment [1] (hippocampal neuronal cells, 50 μM NMDA, 30 minutes, FIG. 2) is “induced”.

For the compound `O=C(NO)[C@@H](Cc1ccccc1)NS(=O)(=O)c1ccc(-c2ccccc2)cc1` [mmp-2/9 Inhibitor II, (2R)-[(4-Biphenylylsulfonyl)amino]-N-hydroxy-3-phenylpropionamide], the “EphA4 cleavage reaction (EphA4 endodomain fragment, Western blot)” value in experiment [1] (hippocampal neuronal cells stimulated with 50 μM NMDA, 0, 1, 5, 10 or 25 μM inhibitor added, FIG. 2A) is “inhibited in a concentration-dependent manner”. Further, in experiment [2] (concentration not given), the “neuronal activity-dependent EphA4 ectodomain cleavage reaction in hippocampal primary cultured neurons (summary statement)” value is “completely inhibited”. Further, the “EphA4 cleavage event detected by ELISA with antibody recognizing the EphA4 ectodomain” value in experiment [2] (hippocampal neuronal cells stimulated with 50 μM NMDA, 5 μM inhibitor, FIG. 2B) is “completely inhibited”.
